This is an account of results in US20200231562A1, “NOVEL MACROLIDE ANTIBIOTICS” (HELMHOLTZ-ZENTRUM FÜR INFEKTIONSFORSCHUNG GMBH, priority 2014, published 2020).

In brackets after ≈: the same amount, converted by molar mass.

Data set [1] concerns S. aureus N315 mutant Mt50DscA.11. Briefly: Susceptibility (MIC) of Disciformycin A-resistant mutant. The class given is cell-based. The note with it: Staphylococcus aureus.
The subject of data set [2] is S. aureus N315 mutant Mt50DscA.2. The description is as above. The class given is cell-based. Conditions: Staphylococcus aureus.
Data set [3] has as its system S. aureus N315 mutant Mt50DscA.5. The data set is described as above. The class given is cell-based. The note with it: Staphylococcus aureus.
The test system of another data set is HUVEC cells. Briefly: Antiproliferative effect (methylene blue staining). The class given is cell-based, human. The note with it: at a concentration of 100 μM. The protocol: (§1) The human monocytic cell line Mono Mac 6 was cultured in RPMI 1640 medium supplemented with FCS (10%, v/v), penicillin (100 U/ml), streptomycin (100 μg/ml), insulin (10 μg/ml), oxaloacetic acid (1 mM), sodium pyruvate (1 mM), and 1× non-essential amino acids at 37° C. and 5% CO2. A-549 cells (DSM ACC-107) were cultured in DMEM high glucose (4.5 g/l) medium supplemented with FCS (10% v/v), penicillin (100 U/ml) and streptomycin (100 μg/ml) at 37° C. in a 5% CO2 incubator. K-562 (DSM ACC 10) and HeLa cells (DSM ACC 57) were grown in RPMI 1640, whereas cells of HUVEC (ATCC CRL-1730) were cultured in DMEM medium. The respective media were supplemented with ultraglutamine 1 (10 ml/l), gentamicin sulfate (500 μl/l), and FCS (10% v/v).
(§2) The test substances were dissolved in methanol before being diluted in DMEM. The adherent cells were harvested at the logarithmic growth phase after soft trypsinization using 0.25% trypsin in PBS containing 0.02% EDTA. For each experiment, approximately 10,000 cells were seeded with 0.1 ml culture medium per well of the 96-well microplates. […] In case of K-562 cells, the number of viable cells in every well was determined using the CellTiter-Blue1 assay. […] The optical densities were measured at 660 nm in a SUNRISE microplate reader (TECAN).

Data set [4] has as its system S. aureus N315 wildtype (WT). Briefly: Susceptibility (MIC) of S. aureus N315 wildtype. The class given is cell-based. Conditions: Staphylococcus aureus.
In another data set the test system is HeLa cells. Briefly: Cytotoxic effect (methylene blue staining). The class given is cell-based, human. The note with it: at a concentration of 100 μM. The protocol: as §1, §2
Another data set relates to K-562 cells. The experiment in a line: Antiproliferative effect (CellTiter-Blue). The class given is cell-based, human. Conditions: K-562, at a concentration of 100 μM. On the procedure: as §1, §2
On the technique in general: Alamar Blue is a resazurin reagent that responds to reducing activity.

The test system of data set [5] is S. aureus N315 mutant Mt50DscA.6. The experiment in a line: Susceptibility (MIC) of Disciformycin A-resistant mutant. The class given is cell-based. Conditions: Staphylococcus aureus.
For data set [6], the system named is S. aureus N315 mutant Mt50DscA.8. Described as above. The class given is cell-based. Conditions: Staphylococcus aureus.
In data set [7] the test system is S. aureus N315 Mt50DscA.9. The description is as above. The class given is cell-based. The note with it: Staphylococcus aureus.
In data set [8] the test system is S. aureus N315 mutant Mt50DscA.3. The description is as above. Conditions: Staphylococcus aureus. The class given is cell-based.
The subject of data set [9] is Staphylococcus auricularis DSM 20609. The experiment in a line: Agar diffusion assay. The class given is cell-based. The note with it: DSM20609, 50 μL of 0.5 mg in 1 mL methanol per 7 mm hole, n.a. = no activity observed, read-out: diameter of inhibition zone. The protocol:
(§3) Antimicrobial activities of the gulmirecins were determined in a primary screen against Bacillus subtilis ATCC 6633, Staphylococcus aureus SG511, Staphylococcus auricularis DSM 20609, Mycobacterium vaccae IMET 10670, Pseudomonas aeruginosa K799/61, Escherichia coli SG458, Sporobolomyces salmonicolor SBUG 549, Candida albicans ATCC14053 and Penicillium notatum JP 36. To this end, holes with 7 mm diameter were aseptically punched in the respective agar medium. Subsequently, the agar plates were inoculated with the test organisms. 0.5 mg of every test compound was dissolved in 1 mL of methanol, and 50 μL of this solution was transferred to a single hole. Ciprofloxacin and amphotericin B served as positive controls. After evaporation of the solvent, the agar plates were incubated depending on the growth conditions of the test organisms. […] The test results are shown in Table 6 below, wherein the given values represent the diameters of the respective inhibition zone in the agar diffusion assay.
On the technique in general: Agar diffusion results depend on both activity and mobility in agar.

For data set [10], the system named is Staphylococcus aureus SG511. Briefly: Agar diffusion assay. The class given is cell-based. Conditions: 50 μL of 0.5 mg in 1 mL methanol per 7 mm hole, n.a. = no activity observed, read-out: diameter of inhibition zone. The protocol: as §3
The test system of data set [11] is transformed lung epithelial A-549 cells. The experiment in a line: MTT assay, cytotoxic activity. Conditions: incubation 24 or 48 hours. The class given is cell-based, human. On the procedure: The cytotoxic activity of gulmirecin A (3) and gulmirecin B (4) against human cells was evaluated in the well-established MTT assay using primary monocytes from human peripheral blood as well as transformed lung epithelial cell A-549 cell and leukemic Mono Mac 6 cells. Furthermore, 3 and 4 were tested against K-562, HUVEC, and HeLa cells.
as §1
Cells (3×10^5 Mono Mac 6, 1×10^5 A-549 cells, or 2×10^6 monocytes per well) were seeded in a 96-well plate in the respective medium (100 μl/well). Monocytes were allowed to adhere for 1.5 hours (37° C., 5% CO2) prior to treatment. Test compounds (0.3% DMSO as vehicle) were added to each well and samples were incubated for 48 hrs. Then, 20 μl of thiazolyl blue tetrazolium bromide (MTT, 5 mg/ml PBS) were added, and the incubation was continued at 37° C., 5% CO2 until blue staining of the vehicle control. Formazan formation was stopped by adding 100 μl of lysis buffer (SDS, 10%, w/v in 20 mM HCl) and samples were shaken overnight. Absorbance of each well was measured at 570 nm in a Multiskan™ microplate spectrophotometer (Thermo Scientific).
On the technique in general: Tetrazolium assays rely on reduction of a dye to a coloured formazan, in cell work by metabolically active cells.

Data set [12] has as its system S. aureus N315 mutant Mt50DscA.1. The experiment in a line: Susceptibility (MIC) of Disciformycin A-resistant mutant. The class given is cell-based. The note with it: Staphylococcus aureus.
Data set [13] concerns S. aureus N315 mutant Mt50DscA.4. Described as above. The class given is cell-based. Conditions: Staphylococcus aureus.
The test system of data set [14] is S. aureus N315 mutant Mt50DscA.10. The data set is described as above. The class given is cell-based. Conditions: Staphylococcus aureus.

For `C/C=C(/C)[C@H]1C/C=C(\C)[C@@H](O[C@H]2O[C@H](CO)[C@@H](O)[C@@H]2O)[C@H](O)C(=O)CC[C@H](C)C(=O)O1` [Compound 4, gulmirecin B], the MIC in [1] was > 64 µg/mL; in data set [2], > 64 µg/mL; in data set [3], > 64 µg/mL; in [4], 32 µg/mL (≈ 72.3 µM); in data set [5] it was > 64 µg/mL; in [6], > 64 µg/mL. Further, the MIC in [7], in [8], in data set [12], in data set [13] and in data set [14] was > 64 µg/mL each time. Besides, the inhibition of proliferation result in the data set with HUVEC cells, with HeLa cells and with K-562 cells was “did not inhibit” in each case. Moreover, the zone of inhibition at 25 µg/hole in data set [9] is 19 mm; in data set [10] it was 17 mm. The “cell viability / cytotoxicity (MTT)” value in data set [11] is listed as “no reduction in cell viability at the concentrations required for antibacterial activity”.

Consider `C/C=C(/C)[C@H]1C/C=C(\C)[C@@H](O[C@H]2O[C@H](CO)[C@@H](O)[C@@H]2O)[C@H](OC(=O)CC(C)C)C(=O)C/C=C(/C)C(=O)O1` [Compound 1, disciformycin A], for which the MIC was > 64 µg/mL in data set [1]; > 64 µg/mL in data set [2]; 64 µg/mL (≈ 122 µM) in data set [3]; 4 µg/mL (≈ 7.62 µM) in data set [4]; > 64 µg/mL in [5]; > 64 µg/mL in data set [6]. Moreover, the MIC in [7], in [8], in data set [12], in data set [13] and in data set [14] was > 64 µg/mL in each case.

In the case of `C/C=C(/C)[C@H]1C/C=C(\C)[C@@H](O[C@H]2O[C@H](CO)[C@@H](O)[C@@H]2O)[C@H](OC(=O)CC(C)C)C(=O)C[C@@H](O)[C@H](C)C(=O)O1` [Compound 3, gulmirecin A], the minimal inhibitory concentration (MIC) in data set [1] was > 64 µg/mL; in data set [2], > 64 µg/mL; in data set [3], 64 µg/mL (≈ 118 µM); in data set [4] it was 4 µg/mL (≈ 7.37 µM); in [5] it was > 64 µg/mL; in [6], > 64 µg/mL. The MIC in data set [7], in [8], in data set [12], in data set [13] and in [14] was > 64 µg/mL in each case. The inhibition of proliferation result in the data set on HUVEC cells, with HeLa cells and in the data set on K-562 cells was “did not inhibit” each time. Moreover, the zone of inhibition at 25 µg/hole in [9] amounted to 31 mm; in data set [10], 29 mm. In addition, the “cell viability / cytotoxicity (MTT)” value in data set [11] is recorded as “no reduction in cell viability at the concentrations required for antibacterial activity”.

The MIC is the lowest concentration that inhibits growth of the organism. Higher therefore signals weaker potency. As a reminder, the zone of inhibition is the extent of the growth-free halo in a diffusion test.
